The values below come from PubChem BioAssay AID504479 (NMMLSC, 2011).

Molecules are shown by their SMILES. The source made the active and inactive calls.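 Rule for the calls: active = GFP ratio vs DMSO below 0.65 in a strain, using the primary screen cutoff set for that strain's protein target; inactive = the rest.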

Holding throughout (assay): TORC1 pathway position of GFP reporter effects – S. cerevisiae, TORC1 bypass vs wild-type strains, mechanism study for yeast TOR pathway modulator project (AID 504479)
What all share (details): fluorescence ratio vs DMSO, at 10 µM

Assay [1] deals with YCR005C.
Assay [2] concerns YKL103C.
Assay [3] relates to YNL142W.
The subject of assay [4] is BY4741.
Assay [5] concerns YBR084C-A.
Assay [6] concerns YCL025C.
Where [7] appears, read: CIT2-GFP in TORC1 bypass strain, stronger effect = higher value.
Where [8] appears, read: LAP4-GFP in TORC1 bypass strain, stronger effect = higher value.
Where [9] appears, read: MEP2-GFP in TORC1 bypass strain, stronger effect = higher value.
Setting [10] is: RPL19A-GFP in TORC1 bypass strain, stronger effect = lower value.
Where [11] appears, read: AGP1-GFP in TORC1 bypass strain, stronger effect = higher value.

For `O=C(OCn1ncc(Br)c(Br)c1=O)c1ccc(F)cc1`, the GFP ratio vs DMSO in assay [1] (setting [7]) is 0.803; in assay [1], 1.06 (inactive); in assay [2] (setting [8]), 1.67; in assay [2] it was 2.44; in assay [3] (setting [9]), 0.918; in assay [3], 1.03 (inactive). For the same compound, the GFP ratio vs DMSO was 0.853 (inactive) in assay [4]; 1.06 in assay [5] (setting [10]); 1.03 (inactive) in assay [5]; 0.766 in assay [6] (setting [11]); 1.02 (inactive) in assay [6].

`O=C(Oc1c(Cl)cc(Cl)c2cccnc12)c1ccco1`: the GFP ratio vs DMSO was 0.81 in assay [1] (setting [7]); 0.971 (inactive) in assay [1]; 1.19 in assay [2] (setting [8]); 1.78 in assay [2]; 0.959 in assay [3] (setting [9]); 1.07 (inactive) in assay [3]. The GFP ratio vs DMSO in assay [4] is 1.18 (inactive); in assay [5] (setting [10]), 1.29; in assay [5], 1.31 (inactive); in assay [6] (setting [11]), 0.699; in assay [6] it was 0.897 (inactive).

For the compound `C/C(=N\NC(=O)c1ccc(C(C)(C)C)cc1)c1ccccn1`, the GFP ratio vs DMSO in assay [1] (setting [7]) is 0.847; in assay [1] it was 0.835 (inactive); in assay [2] (setting [8]), 0.982; in assay [2], 1.13 (inactive); in assay [3] (setting [9]), 0.969; in assay [3] it was 0.804 (inactive). Moreover, the GFP ratio vs DMSO in assay [4] is 1.12 (inactive); in assay [5] (setting [10]), 0.974; in assay [5], 1.03 (inactive); in assay [6] (setting [11]), 0.884; in assay [6], 0.896 (inactive).
